Molecular target: T1, human CB2 receptors (Homo sapiens, UniProt P34972)
T1 construct: expressed in transfected cells; host or cells: CHO cells (membrane fraction)
Experiment: CHO-CB2 radioligand displacement binding (filtration)
Conditions: membranes of CB2 cells, Cheng & Prusoff, n = 3 or 4
Experimental: CHO cells and membrane preparation. These were stably transfected with cDNA encoding human CB2 receptors. […] Cells were maintained at 37° C. and 5% CO2 in DMEM (f-12 HAM) with 2 mm Glutamine, Geneticin (600 μg ml−1) and Hygromycin (300 μg ml−1). […] CHO cells were suspended in 50 mm Tris buffer (pH 7.4) and 0.32 m sucrose and homogenized with an Ultra-Turrex homogenizer. The homogenate was diluted with 50 mm Tris buffer (pH 7.4) and centrifuged at 50,000×g for 1 hour to isolate the membranes.
CHO—CB2 binding. […] Binding was initiated by the addition of cell membranes (20-30 μg protein). Assays were carried out at 30° C. for 90 minutes before termination by addition of ice-cold wash buffer (50 mm Tris buffer, 1 mg ml−1 BSA) and vacuum filtration using a 12-well sampling manifold (Brandel Cell Harvester) and Whatman GF/B glass-fibre filters that had been soaked in wash buffer at 4° C. for 24 hours. Each reaction tube was washed three times with a 4 ml aliquot of buffer. The filters were oven-dried for 60 minutes and then placed in 5 ml of scintillation fluid (Ultima Gold XR, Packard). Radioactivity was quantified by liquid scintillation spectrometry. Specific binding was defined as the difference between the binding that occurred in the presence and absence of 1 μm reference cannabidiol. Protein assays were performed using a Bio-Rad Dc kit. […] […] Competitive binding curves were fitted with minimum values for displacement of radio ligand from specific binding sites constrained to zero.
Additionally, binding of an MCA, described herein, was tested for this reference sample. The resulting displacement and binding values were used as a reference standard against which 26 CBD samples (acquired from Natural Hemp Solutions, Atlanta Ga.) were compared.

[1] = labelled cannabinoid [3H]-CP55940

T1 sequence (P34972 whole entry): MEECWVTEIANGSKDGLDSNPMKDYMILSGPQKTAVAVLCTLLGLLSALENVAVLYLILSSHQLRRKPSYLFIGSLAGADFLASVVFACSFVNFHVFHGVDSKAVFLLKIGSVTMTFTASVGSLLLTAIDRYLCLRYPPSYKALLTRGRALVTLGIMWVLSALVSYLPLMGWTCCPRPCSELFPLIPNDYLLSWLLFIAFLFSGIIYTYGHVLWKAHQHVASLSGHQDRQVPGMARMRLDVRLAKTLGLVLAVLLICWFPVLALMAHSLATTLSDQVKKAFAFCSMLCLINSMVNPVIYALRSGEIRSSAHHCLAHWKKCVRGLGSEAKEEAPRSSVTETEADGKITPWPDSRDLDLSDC

COc1ccc(C(=O)c2c(C)n(CCN3CCOCC3)c3cc(I)ccc23)cc1 [AM630]
Ki [1]: 31.2 ± 12.4 nM | Ki (labelled cannabinoid [3H]-W1N55212-2): 37.5 ± 15.4 nM

C=C1CC[C@@H]2[C@@H](C1)c1c(OC)cc(C(C)(C)CCCCCC)cc1OC2(C)C [Sample L759656]
Ki [1]: 11.8 ± 2.5 nM

CCCCCCC(C)(C)c1cc(OC)c2c(c1)OC(C)(C)[C@@H]1CC=C(C)C[C@@H]21 [Sample L759633]
Ki [1]: 6.4 ± 2.2 nM

Source: US11860174B2, “Anti-cannabidiol antibody and uses thereof” (BOMI, LLC, priority 2017, dated 2024)
